Like-named read-outs stand apart in the source and are kept apart here. A value given as a limit tells only on which side of the number the result lay.

One assay has as its target EGFR Del19/C797S (Homo sapiens, UniProt P00533, C797S/DEL746-750). As to the kind of experiment: Biochemical EGFR kinase inhibition assay (Lance Ultra TR-FRET), double mutant del19/C797S. The gist of the method:
(§1)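 Kinase activity is measured by TR-FRET phosphopeptide detection. Compounds span 0.003 μM to 10 μM; the 1 h reaction at room temperature is quenched with EDTA, then labelled antibody (2 nM) is incubated 60 min before reading.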
(In general: TR-FRET usually uses a lanthanide donor and a delayed reading to cut background.)

Another assay has as its target EGFR L858R/C797S (Homo sapiens, UniProt P00533, C797S/L858R). The assay can be described thus: Biochemical EGFR kinase inhibition assay (Lance Ultra TR-FRET), double mutant L858R/C797S. How it is done: Biochemical EGFR kinase assays were conducted using Lance Ultra time-resolved fluorescence resonance energy transfer (TR-FRET) technology from Perkin-Elmer. Compounds of the invention were initially diluted to 20 mM in 100% DMSO for storage and made into kinase buffer solution to create a compound concentration ranging from 0.003 μM and 10 μM.
Each kinase reactions were incubated at room temperature for 1 hour and then stopped by the addition of 4 μL of stop solution (10 mM EDTA). The specific Europium-labeled-anti-phosphopeptide antibody (PerkinElmer, AD0069) diluted in LANCE detection buffer was then added to a final concentration of 2 nM. After 60 minutes incubation at room temperature the LANCE signal was measured on an EnVision Multilabel Reader (Perkin-Elmer). Excitation wavelength was set at 320 nm and emission monitored at 615 nm (donor) and 665 nm (acceptor). The IC50 values were determined using GraphPad prism software (GraphPad Software, Inc., San Diego, CA, USA).

The next assay concerns the target EGFR Del19/T790M/C797S (Homo sapiens, UniProt P00533, C797S/DEL746-750/T790M). As to the kind of experiment: Biochemical EGFR kinase inhibition assay (Lance Ultra TR-FRET), triple mutant del19/T790M/C797S. The gist of the method: as §1
The target in the next assay is EGFR L858R/T790M/C797S (Homo sapiens, UniProt P00533, C797S/L858R/T790M). The assay can be described thus: Biochemical EGFR kinase inhibition assay (Lance Ultra TR-FRET), triple mutant L858R/T790M/C797S. The gist of the method:
as §1

Another assay deals with EGFR wildtype (WT) (Homo sapiens, UniProt P00533). As to the kind of experiment: Biochemical EGFR kinase inhibition assay (Lance Ultra TR-FRET), wildtype. The gist of the method:
as §1

[1] abbreviates: IC50 Del19/C797S (nM), 100 μM ATP.
[2] abbreviates: Km ATP, read-out: IC50 Del19/C797S (nM), Km ATP.
Where [3] appears, read: IC50 L858R/C797S (nM), 100 μM ATP.
Where [4] appears, read: Km ATP, read-out: IC50 L858R/C797S (nM), Km ATP.
Where [5] appears, read: IC50 Del19/T790M/C797S (nM), 100 μM ATP.
Setting [6] is: Km ATP, read-out: IC50 Del19/T790M/C797S (nM), Km ATP.
[7] abbreviates: IC50 L858R/T790M/C797S (nM), 100 μM ATP.
[8] abbreviates: Km ATP, read-out: IC50 L858R/T790M/C797S (nM), Km ATP.
[9] abbreviates: Km ATP, read-out: IC50 WT (nM), Km ATP.
The mark [10] stands for this setting: Km ATP, read-out: IC50 Del19/C797S (nM) Km ATP.
[11] abbreviates: Km ATP, read-out: IC50 L858R/C797S (nM) Km ATP.
The mark [12] stands for this setting: Km ATP, read-out: IC50 Del19/T790M/C797S (nM) Km ATP.
[13] abbreviates: Km ATP, read-out: IC50 L858R/T790M/C797S (nM) Km ATP.
Setting [14] is: Km ATP, read-out: IC50 WT (nM) Km ATP.

EGFR Del19/C797S, sequence (P00533 with tags, fused parts or gaps DEL746-750/C797S): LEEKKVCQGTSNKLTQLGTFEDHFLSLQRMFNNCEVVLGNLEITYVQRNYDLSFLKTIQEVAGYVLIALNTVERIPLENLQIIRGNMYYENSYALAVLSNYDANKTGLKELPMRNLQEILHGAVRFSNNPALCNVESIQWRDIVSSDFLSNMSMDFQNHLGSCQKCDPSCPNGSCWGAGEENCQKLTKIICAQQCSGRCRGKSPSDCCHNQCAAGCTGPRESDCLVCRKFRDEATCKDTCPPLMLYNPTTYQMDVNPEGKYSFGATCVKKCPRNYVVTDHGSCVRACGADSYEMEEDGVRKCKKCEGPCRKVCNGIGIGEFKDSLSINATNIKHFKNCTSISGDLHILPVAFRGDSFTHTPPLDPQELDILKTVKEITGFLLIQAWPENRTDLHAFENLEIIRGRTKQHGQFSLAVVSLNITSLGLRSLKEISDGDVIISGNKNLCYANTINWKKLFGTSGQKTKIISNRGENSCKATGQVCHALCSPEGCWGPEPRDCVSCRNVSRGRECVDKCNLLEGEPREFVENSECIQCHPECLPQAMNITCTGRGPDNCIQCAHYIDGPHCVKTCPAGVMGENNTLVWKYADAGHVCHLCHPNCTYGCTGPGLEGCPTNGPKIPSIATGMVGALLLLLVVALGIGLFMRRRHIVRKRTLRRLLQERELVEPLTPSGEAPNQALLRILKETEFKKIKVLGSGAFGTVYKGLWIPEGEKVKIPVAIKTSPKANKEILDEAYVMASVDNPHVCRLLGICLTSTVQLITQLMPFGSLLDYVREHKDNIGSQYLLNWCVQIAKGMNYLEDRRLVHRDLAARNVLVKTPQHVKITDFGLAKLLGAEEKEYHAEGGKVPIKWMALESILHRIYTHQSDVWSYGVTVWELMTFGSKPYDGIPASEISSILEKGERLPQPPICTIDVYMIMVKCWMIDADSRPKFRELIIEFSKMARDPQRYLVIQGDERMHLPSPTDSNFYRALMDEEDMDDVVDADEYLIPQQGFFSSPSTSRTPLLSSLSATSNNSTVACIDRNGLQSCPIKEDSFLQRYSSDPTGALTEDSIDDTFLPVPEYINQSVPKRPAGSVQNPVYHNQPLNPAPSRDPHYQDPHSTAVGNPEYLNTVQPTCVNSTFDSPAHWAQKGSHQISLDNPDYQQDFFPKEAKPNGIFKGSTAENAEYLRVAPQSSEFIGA
EGFR Del19/T790M/C797S, sequence (P00533 with tags, fused parts or gaps DEL746-750/T790M/C797S): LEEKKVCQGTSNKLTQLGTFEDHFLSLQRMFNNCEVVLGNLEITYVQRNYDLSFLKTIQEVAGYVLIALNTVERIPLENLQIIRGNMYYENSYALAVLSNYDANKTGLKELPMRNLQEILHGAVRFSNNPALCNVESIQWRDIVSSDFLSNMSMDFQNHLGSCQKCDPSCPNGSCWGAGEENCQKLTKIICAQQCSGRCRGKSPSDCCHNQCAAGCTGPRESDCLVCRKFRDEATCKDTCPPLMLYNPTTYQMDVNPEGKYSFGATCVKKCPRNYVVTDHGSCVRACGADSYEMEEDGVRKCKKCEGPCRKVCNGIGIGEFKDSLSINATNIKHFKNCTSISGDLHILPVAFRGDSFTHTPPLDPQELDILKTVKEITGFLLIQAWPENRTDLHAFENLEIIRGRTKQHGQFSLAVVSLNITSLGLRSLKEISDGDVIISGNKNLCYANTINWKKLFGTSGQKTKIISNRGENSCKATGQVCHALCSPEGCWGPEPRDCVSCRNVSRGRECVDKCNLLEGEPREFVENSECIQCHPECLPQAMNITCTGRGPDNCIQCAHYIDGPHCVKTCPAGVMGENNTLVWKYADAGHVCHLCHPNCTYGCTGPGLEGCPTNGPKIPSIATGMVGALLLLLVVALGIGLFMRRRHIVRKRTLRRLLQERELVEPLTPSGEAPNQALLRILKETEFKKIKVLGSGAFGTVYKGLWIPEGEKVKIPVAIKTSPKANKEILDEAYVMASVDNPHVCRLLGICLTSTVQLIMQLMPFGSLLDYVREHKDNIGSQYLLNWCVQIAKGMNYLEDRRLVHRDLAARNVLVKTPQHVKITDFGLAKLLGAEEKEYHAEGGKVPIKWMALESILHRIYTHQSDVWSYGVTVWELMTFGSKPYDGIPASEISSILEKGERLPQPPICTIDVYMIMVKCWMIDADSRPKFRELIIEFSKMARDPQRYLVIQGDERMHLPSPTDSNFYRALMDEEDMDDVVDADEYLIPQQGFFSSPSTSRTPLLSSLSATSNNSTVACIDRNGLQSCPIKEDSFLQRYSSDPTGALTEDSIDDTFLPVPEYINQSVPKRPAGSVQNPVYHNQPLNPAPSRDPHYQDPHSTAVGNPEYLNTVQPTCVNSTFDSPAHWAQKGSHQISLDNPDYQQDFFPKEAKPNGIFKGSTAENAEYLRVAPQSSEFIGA
EGFR L858R/C797S, sequence (P00533 25-1210 C797S/L858R): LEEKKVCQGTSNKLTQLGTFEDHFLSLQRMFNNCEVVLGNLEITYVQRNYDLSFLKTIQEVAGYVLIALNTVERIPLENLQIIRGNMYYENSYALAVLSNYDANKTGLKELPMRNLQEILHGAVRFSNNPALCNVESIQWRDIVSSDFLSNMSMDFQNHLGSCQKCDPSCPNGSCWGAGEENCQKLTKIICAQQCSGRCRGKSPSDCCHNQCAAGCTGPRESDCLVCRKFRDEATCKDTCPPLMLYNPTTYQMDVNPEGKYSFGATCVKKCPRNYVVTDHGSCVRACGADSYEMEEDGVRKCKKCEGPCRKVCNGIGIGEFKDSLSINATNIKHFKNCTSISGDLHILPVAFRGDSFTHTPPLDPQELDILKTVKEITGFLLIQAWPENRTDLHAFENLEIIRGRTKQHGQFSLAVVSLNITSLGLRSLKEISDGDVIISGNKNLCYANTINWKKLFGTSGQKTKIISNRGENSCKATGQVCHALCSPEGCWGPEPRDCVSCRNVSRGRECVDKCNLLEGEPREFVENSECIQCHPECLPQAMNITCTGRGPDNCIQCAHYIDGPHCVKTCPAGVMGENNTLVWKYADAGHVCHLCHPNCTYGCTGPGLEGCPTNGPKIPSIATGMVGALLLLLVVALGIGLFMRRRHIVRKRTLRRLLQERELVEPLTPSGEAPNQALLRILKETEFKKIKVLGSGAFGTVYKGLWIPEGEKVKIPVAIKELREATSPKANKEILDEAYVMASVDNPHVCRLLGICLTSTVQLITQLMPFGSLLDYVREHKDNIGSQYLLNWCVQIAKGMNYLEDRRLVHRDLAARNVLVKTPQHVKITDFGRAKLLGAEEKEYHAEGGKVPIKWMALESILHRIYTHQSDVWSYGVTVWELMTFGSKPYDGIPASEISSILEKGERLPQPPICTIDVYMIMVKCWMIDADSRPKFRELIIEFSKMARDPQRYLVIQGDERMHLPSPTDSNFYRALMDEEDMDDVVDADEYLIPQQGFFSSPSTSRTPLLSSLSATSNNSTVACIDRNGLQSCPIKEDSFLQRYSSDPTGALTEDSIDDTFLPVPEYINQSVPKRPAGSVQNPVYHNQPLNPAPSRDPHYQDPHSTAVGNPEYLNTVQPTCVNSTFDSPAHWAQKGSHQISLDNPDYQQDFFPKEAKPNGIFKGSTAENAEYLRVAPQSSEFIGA
EGFR L858R/T790M/C797S, sequence (P00533 25-1210 T790M/C797S/L858R): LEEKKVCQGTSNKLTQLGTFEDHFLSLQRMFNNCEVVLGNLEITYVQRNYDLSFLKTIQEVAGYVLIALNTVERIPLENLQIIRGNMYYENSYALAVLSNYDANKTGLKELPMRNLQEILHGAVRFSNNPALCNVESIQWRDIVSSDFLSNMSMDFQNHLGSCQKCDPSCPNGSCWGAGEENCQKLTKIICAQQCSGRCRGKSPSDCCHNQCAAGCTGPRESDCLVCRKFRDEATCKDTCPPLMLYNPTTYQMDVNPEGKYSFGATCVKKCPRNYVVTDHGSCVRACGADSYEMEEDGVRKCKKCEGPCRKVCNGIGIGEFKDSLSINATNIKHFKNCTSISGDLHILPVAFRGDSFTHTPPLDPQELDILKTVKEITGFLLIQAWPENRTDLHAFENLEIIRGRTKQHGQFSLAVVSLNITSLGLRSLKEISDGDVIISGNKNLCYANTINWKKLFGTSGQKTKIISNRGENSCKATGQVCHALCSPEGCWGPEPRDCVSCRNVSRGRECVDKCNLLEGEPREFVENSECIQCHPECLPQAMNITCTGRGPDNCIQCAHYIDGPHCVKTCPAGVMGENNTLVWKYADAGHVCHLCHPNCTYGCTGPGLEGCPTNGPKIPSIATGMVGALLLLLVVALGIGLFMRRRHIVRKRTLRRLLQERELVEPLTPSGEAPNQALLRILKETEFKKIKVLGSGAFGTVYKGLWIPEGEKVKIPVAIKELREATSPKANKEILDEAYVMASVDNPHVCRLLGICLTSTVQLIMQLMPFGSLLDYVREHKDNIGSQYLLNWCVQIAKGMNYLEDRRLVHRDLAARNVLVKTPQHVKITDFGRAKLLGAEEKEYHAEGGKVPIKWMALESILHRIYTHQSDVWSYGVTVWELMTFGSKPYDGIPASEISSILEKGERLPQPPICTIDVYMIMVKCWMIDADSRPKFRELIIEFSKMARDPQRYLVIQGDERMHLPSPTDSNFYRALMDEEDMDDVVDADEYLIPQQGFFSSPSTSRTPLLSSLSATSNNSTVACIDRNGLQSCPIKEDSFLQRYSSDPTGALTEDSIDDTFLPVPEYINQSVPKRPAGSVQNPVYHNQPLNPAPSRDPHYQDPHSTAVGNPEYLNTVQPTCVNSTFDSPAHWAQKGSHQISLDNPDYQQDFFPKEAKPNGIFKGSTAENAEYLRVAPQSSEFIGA

On to `O=S(=O)(C1CC1)n1cc(-c2nccc(Nc3cc(N4CCC(F)(CO)CC4)c(C#Cc4cnn(C(F)(F)F)c4)cn3)n2)cn1` [Example 338, (1-(2-((2-(1-(Cyclopropylsulfonyl)-1H-pyrazol-4-yl)pyrimidin-4-yl)amino)-5-((1-(trifluoromethyl)-1H-pyrazol-4-yl)ethynyl)pyridin-4-yl)-4-fluoropiperidin-4-yl)methanol], for which the IC50 on EGFR Del19/C797S (setting [1]) was found to be 17.1 nM; on EGFR Del19/C797S (setting [2]) it was 10.8 nM; at EGFR L858R/C797S (setting [3]), 9580 nM; on EGFR L858R/C797S (setting [4]) it was 42.8 nM; against EGFR Del19/T790M/C797S (setting [5]), 0.4 nM; at EGFR Del19/T790M/C797S (setting [6]), 0.3 nM. Besides, the IC50 was 0.5 nM against EGFR L858R/T790M/C797S (setting [7]); 0.2 nM at EGFR L858R/T790M/C797S (setting [8]); greater than 10000 nM on EGFR wildtype (WT) (IC50 WT (nM), 100 μM ATP); 149 nM at EGFR wildtype (WT) (setting [9]).
Regarding `O=S(=O)(C1CC1)n1cc(-c2nccc(Nc3cc(N4CCC(NCCO)CC4)c(C#Cc4cnn(C5CCOCC5)c4)cn3)n2)cn1` [Example 137, 2-((1-(2-((2-(1-(Cyclopropylsulfonyl)-1H-pyrazol-4-yl)pyrimidin-4-yl)amino)-5-((1-(tetrahydro-2H-pyran-4-yl)-1H-pyrazol-4-yl)ethynyl)pyridin-4-yl)piperidin-4-yl)amino)ethan-1-ol], the IC50 was found to be 11.7 nM against EGFR Del19/C797S (setting [1]); 8.8 nM on EGFR Del19/C797S (setting [10]); 74.2 nM against EGFR L858R/C797S (setting [3]); 5 nM on EGFR L858R/C797S (setting [11]); 0.4 nM on EGFR Del19/T790M/C797S (setting [5]); 0.4 nM on EGFR Del19/T790M/C797S (setting [12]). Moreover, the IC50 against EGFR L858R/T790M/C797S (setting [7]) is 2 nM; on EGFR L858R/T790M/C797S (setting [13]), 0.4 nM; on EGFR wildtype (WT) (IC50 WT (nM), 100 μM ATP) it was greater than 10000 nM; on EGFR wildtype (WT) (setting [14]), 174 nM.
Turning to `CN(C)CC1CCN(c2cc(Nc3ccnc(-c4cnn(S(=O)(=O)C5CC5)c4)n3)ncc2C#Cc2cnn(CC(F)F)c2)CC1` [Example 301, 2-(1-(Cyclopropylsulfonyl)-1H-pyrazol-4-yl)-N-(5-((1-(2,2-difluoroethyl)-1H-pyrazol-4-yl)ethynyl)-4-(4-((dimethylamino)methyl)piperidin-1-yl)pyridin-2-yl)pyrimidin-4-amine], the IC50 at EGFR Del19/C797S (ATP at Km, read-out: IC50 Del19/C797S (nM), Km ATP) came to 7.2 nM; against EGFR Del19/C797S (setting [1]) it was 4.9 nM; at EGFR L858R/C797S (ATP at Km, read-out: IC50 L858R/C797S (nM), Km ATP), 11.2 nM; against EGFR L858R/C797S (setting [3]), 138 nM; on EGFR Del19/T790M/C797S (ATP at Km, read-out: IC50 Del19/T790M/C797S (nM), Km ATP) it was 0.6 nM; against EGFR Del19/T790M/C797S (setting [5]), 0.7 nM. Further, the IC50 at EGFR L858R/T790M/C797S (ATP at Km, read-out: IC50 L858R/T790M/C797S (nM), Km ATP) is 0.6 nM; at EGFR L858R/T790M/C797S (setting [7]) it was 1.4 nM; at EGFR wildtype (WT) (ATP at Km, read-out: IC50 WT (nM), Km ATP), 22.9 nM; at EGFR wildtype (WT) (IC50 WT (nM), 100 μM ATP) it was greater than 10000 nM.
As for `Cn1cc(C#Cc2cnc(Nc3ccnc(-c4cnn(S(=O)(=O)C5CC5)c4)n3)cc2N[C@H]2CCC[C@@H](O)C2)cn1` [Example 75, (1R,3S)-3-((2-((2-(1-(Cyclopropylsulfonyl)-1H-pyrazol-4-yl)pyrimidin-4-yl)amino)-5-((1-methyl-1H-pyrazol-4-yl)ethynyl)pyridin-4-yl)amino)cyclohexan-1-ol], the IC50 on EGFR Del19/C797S (setting [1]) came out at 5.7 nM; on EGFR Del19/C797S (setting [10]), 3.8 nM; on EGFR L858R/C797S (setting [3]), 104 nM; at EGFR L858R/C797S (setting [11]), 2.6 nM; at EGFR Del19/T790M/C797S (setting [5]), 1.6 nM; at EGFR Del19/T790M/C797S (setting [12]), 1.8 nM. In addition, the IC50 is 1.8 nM against EGFR L858R/T790M/C797S (setting [7]); 0.8 nM at EGFR L858R/T790M/C797S (setting [13]); greater than 10000 nM against EGFR wildtype (WT) (IC50 WT (nM), 100 μM ATP); 45.6 nM on EGFR wildtype (WT) (setting [14]).
Consider `CC1(O)CCN(c2cc(Nc3ccnc(-c4cnn(S(=O)(=O)C5CC5)c4)n3)ncc2C#Cc2ncc(CN3CCOCC3)cn2)CC1` [Example 364, 1-(2-((2-(1-(Cyclopropylsulfonyl)-1H-pyrazol-4-yl)pyrimidin-4-yl)amino)-5-((5-(morpholinomethyl)pyrimidin-2-yl)ethynyl)pyridin-4-yl)-4-methylpiperidin-4-ol], for which the IC50 came out at 1.3 nM on EGFR Del19/C797S (setting [1]); 1.4 nM on EGFR Del19/C797S (setting [2]); 12.9 nM at EGFR L858R/C797S (setting [3]); 2.1 nM at EGFR L858R/C797S (setting [4]); 0.3 nM against EGFR Del19/T790M/C797S (setting [5]); 0.2 nM on EGFR Del19/T790M/C797S (setting [6]). Besides, the IC50 was found to be 0.6 nM on EGFR L858R/T790M/C797S (setting [7]); 0.1 nM on EGFR L858R/T790M/C797S (setting [8]); 2530 nM against EGFR wildtype (WT) (IC50 WT (nM), 100 μM ATP); 7.5 nM at EGFR wildtype (WT) (setting [9]).

The record behind these values is patent publication US11981658B2, “Substituted aminopyridine compounds as EGFR inhibitors” (YUHAN CORPORATION, priority 2021, dated 2024).
